According to patent US20160175306A1, “COMBINATION OF A IMIDAZOPYRIDAZINE DERIVATIVE AND A MITOTIC AGENT FOR THE TREATMENT OF CANCER” (BAYER PHARMA AKTIENGESELLSCHAFT, priority 2013, published 2016):

Assays:
human kinase Mps-1 = target: T1, human kinase Mps-1 (Homo sapiens, UniProt P33981); test: Mps-1 Kinase Assay (TR-FRET); type: biochemical; conditions: 10 μM ATP
T1 construct: N-terminally GST-tagged human full length recombinant Mps-1 kinase; purchased Invitrogen, Karslruhe, Germany PV4071
T1 sequence (P33981 1-857): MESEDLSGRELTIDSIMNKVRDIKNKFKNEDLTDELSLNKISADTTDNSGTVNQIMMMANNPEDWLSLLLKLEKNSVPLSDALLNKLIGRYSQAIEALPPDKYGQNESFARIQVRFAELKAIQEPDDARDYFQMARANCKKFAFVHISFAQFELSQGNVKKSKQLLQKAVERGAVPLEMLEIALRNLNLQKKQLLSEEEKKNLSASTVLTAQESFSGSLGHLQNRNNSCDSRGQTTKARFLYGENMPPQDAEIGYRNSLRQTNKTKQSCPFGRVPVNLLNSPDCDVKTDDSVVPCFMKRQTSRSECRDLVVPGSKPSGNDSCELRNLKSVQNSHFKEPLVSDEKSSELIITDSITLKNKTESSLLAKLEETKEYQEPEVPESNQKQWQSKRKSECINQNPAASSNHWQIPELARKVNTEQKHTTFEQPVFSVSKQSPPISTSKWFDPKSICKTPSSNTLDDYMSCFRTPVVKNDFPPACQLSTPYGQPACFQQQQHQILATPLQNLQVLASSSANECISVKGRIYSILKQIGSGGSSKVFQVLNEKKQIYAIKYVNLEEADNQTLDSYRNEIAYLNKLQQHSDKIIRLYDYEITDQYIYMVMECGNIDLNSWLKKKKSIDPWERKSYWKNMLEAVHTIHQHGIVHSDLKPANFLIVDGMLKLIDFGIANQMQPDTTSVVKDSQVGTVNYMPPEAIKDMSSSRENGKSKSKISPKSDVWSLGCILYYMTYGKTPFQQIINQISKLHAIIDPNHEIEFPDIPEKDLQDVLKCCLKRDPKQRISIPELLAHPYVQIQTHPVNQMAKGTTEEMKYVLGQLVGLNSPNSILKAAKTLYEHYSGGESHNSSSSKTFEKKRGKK
Description: The human kinase Mps-1 phosphorylates a biotinylated substrate peptide. Detection of the phosphorylated product is achieved by time-resolved fluorescence resonance energy transfer (TR-FRET) from Europium-labelled anti-phospho-Serine/Threonine antibody as donor to streptavidin Labelled with cross-linked allophycocyanin (SA-XLent) as acceptor. Compounds are tested for their inhibition of the kinase activity.
N-terminally GST-tagged human full length recombinant Mps-1 kinase (purchased from Invitrogen, Karslruhe, Germany, cat. no PV4071) was used. As substrate for the kinase reaction a biotinylated peptide of the amino-acid sequence […] (C-terminus in amide form, purchased from Biosynthan GmbH, Berlin) was used.
The concentration of Mps-1 in the assay was adjusted to the activity of the enzyme lot and was chosen appropriate to have the assay in the linear range, typical enzyme concentrations were in the range of about 1 nM (final conc. in the 5 μl assay volume).
The resulting mixture was incubated 1 h at 22° C. to allow the binding of the phosphorylated peptide to the anti-phospho(Ser/Thr)-Europium-antibody. Subsequently the amount of phosphorylated substrate was evaluated by measurement of the resonance energy transfer from the Europium-labelled anti-phospho(Ser/Thr) antibody to the Streptavidin-XLent.

rat hepatocytes = test: In vitro metabolic stability in rat hepatocytes; type: in vitro ADME; conditions: 1 μM test compound, calculated from half-life
Description: Investigation of In Vitro Metabolic Stability in Rat Hepatocytes (Including Calculation of Hepatic In Vivo Blood Clearance (CL))
Hepatocytes from Han Wistar rats were isolated via a 2-step perfusion method. After perfusion, the liver was carefully removed from the rat: the liver capsule was opened and the hepatocytes were gently shaken out into a Petri dish with ice-cold WME. The resulting cell suspension was filtered through sterile gaze in 50 ml falcon tubes and centrifuged at 50×g for 3 min at room temperature.
The cell pellet was resuspended in 30 ml WME and centrifuged through a Percoll® gradient for 2 times at 100×g. The hepatocytes were washed again with Williams' medium E (WME) and resuspended in medium containing 5% FCS. Cell viability was determined by trypan blue exclusion.
For the metabolic stability assay liver cells were distributed in WME containing 5% FCS to glass vials at a density of 1.0×10^6 vital cells/m. The test compound was added to a final concentration of 1 μM. During incubation, the hepatocyte suspensions were continuously shaken and aliquots were taken at 2, 8, 16, 30, 45 and 90 min, to which equal volumes of cold methanol were immediately added. Samples were frozen at −20° C. over night, after subsequently centrifuged for 15 minutes at 3000 rpm and the supernatant was analyzed with an Agilent 1200 HPLC-system with LCMS/MS detection.
The half-life of a test compound was determined from the concentration-time plot. From the half-life the intrinsic clearances were calculated. Together with the additional parameters liver blood flow, amount of liver cells in vivo and in vitro. The hepatic in vivo blood clearance (CL) and the maximal oral bioavailability (Fmax) was calculated. The following parameter values were used: Liver blood flow—4.2 L/h/kg rat; specific liver weight—32 g/kg rat body weight; liver cells in vivo—1.1×10^8 cells/g liver, liver cells in vitro—0.5×10^6/ml.

IC50 (human kinase Mps-1) [nM] | Fmax (maximal oral bioavailability) (rat hepatocytes) [%] | SMILES
1.5 | 76 | Cc1cc(-c2cnc3c(NCCC(F)(F)F)cc(C(F)(F)c4cccc(F)c4F)nn23)ccc1C(=O)NC1CC1 [Compound A18, N-Cyclopropyl-4-{6-[(2,3-difluorophenyl)(difluoro)methyl]-8-[(3,3,3-trifluoropropyl)amino]imidazo[1,2-b]pyridazin-3-yl}-2-methylbenzamide]
0.3 | 48 | C=C(c1cccc(F)c1)c1cc(NCCC(F)(F)F)c2ncc(-c3ccc(C(=O)NC4CC4)c(C)c3)n2n1 [Compound A24, N-cyclopropyl-4-{6-[1-(3-fluorophenyl)ethenyl]-8-[(3,3,3-trifluoropropyl)amino]imidazo[1,2-b]pyridazin-3-yl}-2-methylbenzamide]
0.6 | – | C=C(c1cc(NCCC(F)(F)F)c2ncc(-c3ccc(C(=O)NC4CC4)c(C)c3)n2n1)c1cc(F)ccc1F [Compound A19, N-Cyclopropyl-4-{6-[1-(2,5-difluorophenyl)vinyl]-8-[(3,3,3-trifluoropropyl)amino]imidazo[1,2-b]pyridazin-3-yl}-2-methylbenzamide]
0.4 | 53 | C=C(c1cc(NCCC(F)(F)F)c2ncc(-c3ccc(C(=O)NC4CC4)c(C)c3)n2n1)c1cccc(F)c1F [Compound A15, N-Cyclopropyl-4-{6-[1-(2,3-difluorophenyl)vinyl]-8-[(3,3,3-trifluoropropyl)amino]imidazo[1,2-b]pyridazin-3-yl}-2-methylbenzamide]
0.8 | – | Cc1cc(-c2cnc3c(NCCC(F)(F)F)cc(C4(c5cc(F)ccc5F)CC4)nn23)ccc1C(=O)NC1CC1 [Compound A20, N-Cyclopropyl-4-{6-[1-(2,5-difluorophenyl)cyclopropyl]-8-[(3,3,3-trifluoropropyl)amino]imidazo[1,2-b]pyridazin-3-yl}-2-methylbenzamide]
0.9 | 52 | Cc1cc(-c2cnc3c(NCCC(F)(F)F)cc(C4(c5cccc(F)c5)CC4)nn23)ccc1C(=O)NC1CC1 [Compound A25, N-cyclopropyl-4-{6-[1-(3-fluorophenyl)cyclopropyl]-8-[(3,3,3-trifluoropropyl)amino]imidazo[1,2-b]pyridazin-3-yl}-2-methylbenzamide]
0.5 | – | Cc1cc(-c2cnc3c(NCCC(F)(F)F)cc(C(F)(F)c4cc(F)ccc4F)nn23)ccc1C(=O)NC1CC1 [Compound A21, N-Cyclopropyl-4-{6-[(2,5-difluorophenyl)(difluoro)methyl]-8-[(3,3,3-trifluoropropyl)amino]imidazo[1,2-b]pyridazin-3-yl}-2-methylbenzamide]

More lines, now with the values behind:

SMILES | IC50 (human kinase Mps-1) [nM] | Fmax (maximal oral bioavailability) (rat hepatocytes) [%]
COc1ccc(C(F)(F)c2cc(NCCC(F)(F)F)c3ncc(-c4ccc(C(=O)NC5CC5)c(C)c4)n3n2)cc1F [Compound A2, N-Cyclopropyl-4-{6-[difluoro(3-fluoro-4-methoxyphenyl)methyl]-8-[(3,3,3-trifluoropropyl)amino]imidazo[1,2-b]pyridazin-3-yl}-2-methylbenzamide] | 0.6 | 64
Cc1cc(-c2cnc3c(NCCC(F)(F)F)cc(C(C)(O)c4cccc(F)c4O)nn23)ccc1C(=O)NC1CC1 (racemic) [Compound A4, (RS)—N-Cyclopropyl-4-{6-[1-(3-fluoro-2-hydroxyphenyl)-1-hydroxyethyl]-8-[(3,3,3-trifluoropropyl)amino]imidazo[1,2-b]pyridazin-3-yl}-2-methylbenzamide] | 0.3 | 36
C=C(c1cccc(OC)c1)c1cc(NCCC(F)(F)F)c2ncc(-c3ccc(C(=O)NC4CC4)c(C)c3)n2n1 [Compound A8, N-Cyclopropyl-4-{6-[1-(3-methoxyphenyl)vinyl]-8-[(3,3,3-trifluoropropyl)amino]imidazo[1,2-b]pyridazin-3-yl}-2-methylbenzamide] | 0.8 | 57
Cc1cc(-c2cnc3c(NCCC(F)(F)F)cc(C(=O)c4cccc(F)c4F)nn23)ccc1C(=O)NC1CC1 [Compound A14, N-Cyclopropyl-4-{6-(2,3-difluorobenzoyl)-8-[(3,3,3-trifluoropropyl)amino]imidazo[1,2-b]pyridazin-3-yl}-2-methylbenzamide] | 0.6 | 51
Cc1cc(-c2cnc3c(NCCC(F)(F)F)cc(C(=O)c4cc(F)ccc4F)nn23)ccc1C(=O)NC1CC1 [Compound A12, N-Cyclopropyl-4-{6-(2,5-difluorobenzoyl)-8-[(3,3,3-trifluoropropyl)amino]imidazo[1,2-b]pyridazin-3-yl}-2-methylbenzamide] | 0.6 | 67
COc1ccc(C(=O)c2cc(NCCC(F)(F)F)c3ncc(-c4ccc(C(=O)NC5CC5)c(C)c4)n3n2)cc1 [Compound A9, N-Cyclopropyl-4-{6-(4-methoxybenzoyl)-8-[(3,3,3-trifluoropropyl)amino]imidazo[1,2-b]pyridazin-3-yl}-2-methylbenzamide] | 1.2 | 71
COc1cccc(C(=O)c2cc(NCCC(F)(F)F)c3ncc(-c4ccc(C(=O)NC5CC5)c(C)c4)n3n2)c1 [Compound A7, N-Cyclopropyl-4-{6-(3-methoxybenzoyl)-8-[(3,3,3-trifluoropropyl)amino]imidazo[1,2-b]pyridazin-3-yl}-2-methylbenzamide] | 0.5 | 26
Cc1cc(-c2cnc3c(NCCC(F)(F)F)cc(C(F)c4cccc(F)c4)nn23)ccc1C(=O)NC1CC1 (racemic) [Compound A5, (RS)—N-Cyclopropyl-4-{6-[fluoro(3-fluorophenyl)methyl]-8-[(3,3,3-trifluoropropyl)amino]imidazo[1,2-b]pyridazin-3-yl}-2-methylbenzamide] | 0.7 | 49
Cc1cc(-c2cnc3c(NCCC(F)(F)F)cc(C(O)c4cccc(F)c4O)nn23)ccc1C(=O)NC1CC1 (racemic) [Compound A3, (RS)—N-Cyclopropyl-4-{6-[(3-fluoro-2-hydroxyphenyl)(hydroxy)methyl]-8-[(3,3,3-trifluoropropyl)amino]imidazo[1,2-b]pyridazin-3-yl}-2-methylbenzamide] | 0.2 | 18
COc1ccc(Cc2cc(NCCC(F)(F)F)c3ncc(-c4ccc(C(=O)NC5CC5)c(C)c4)n3n2)cc1 [Comparative Example 5, N-Cyclopropyl-4-{6-(4-methoxybenzyl)-8-[(3,3,3-trifluoropropyl)amino]imidazo[1,2-b]pyridazin-3-yl}-2-methylbenzamide, reference compound] | – | 35
